Measured values reported in article PMC9072246 (Acta Pharmaceutica Sinica. B, 2021).
Structures can show the parent of a compound that is named as a salt.

Experiments:
[1] = In vivo pharmacokinetic after oral administration; design: species or system SD rats
[2] = In vitro drug release by dialysis method; assay type: physicochemical; conditions: pH 7.4 PBS, after 3 h
[3] = Drug absorption in rat small intestine; assay type: in vivo; conditions: SD rats, intragastric 5 mg/kg DOX equivalent, 2 h, CLSM

Frel, relative bioavailability ([1]; SD rats, oral, 30 mg/kg DOX equivalent, relative to DOX): 100% | AUC ([1]; SD, rat, plasma, po, 30 mg/kg): 4000 ± 20 ng·h/mL | Cmax ([1]; SD, rat, plasma, po, 30 mg/kg): 160 ± 10 ng/mL | MRT ([1]; SD, rat, plasma, po, 30 mg/kg): 24.6 ± 0.34 h | Tmax ([1]; SD, rat, plasma, po, 30 mg/kg): 1 h | concentration at 1 h ([1]; SD, rat, plasma, po, 30 mg/kg): 160 ng/mL | concentration at 8 h ([1]; SD, rat, plasma, po, 30 mg/kg): 130 ng/mL | half-life ([1]; SD, rat, plasma, po, 30 mg/kg): 12.6 ± 0.58 h | cumulative release amount of DOX [2]: 90% | DOX fluorescence signal in small intestine tissue [3]: almost no red fluorescence signal
Compound: COc1cccc2c1C(=O)c1c(O)c3c(c(O)c1C2=O)C[C@@](O)(C(=O)CO)C[C@@H]3O[C@H]1C[C@H](N)[C@H](O)[C@H](C)O1 [DOX, doxorubicin hydrochloride]
